In patent US20230295200A1 (REGENTS OF THE UNIVERSITY OF MICHIGAN, priority 2022, published 2023) one finds Ki data, which are given here for 15 compounds.

In the assay the target is T1, STAT6 protein (Homo sapiens, UniProt P42226).
T1 sequence (P42226 1-847): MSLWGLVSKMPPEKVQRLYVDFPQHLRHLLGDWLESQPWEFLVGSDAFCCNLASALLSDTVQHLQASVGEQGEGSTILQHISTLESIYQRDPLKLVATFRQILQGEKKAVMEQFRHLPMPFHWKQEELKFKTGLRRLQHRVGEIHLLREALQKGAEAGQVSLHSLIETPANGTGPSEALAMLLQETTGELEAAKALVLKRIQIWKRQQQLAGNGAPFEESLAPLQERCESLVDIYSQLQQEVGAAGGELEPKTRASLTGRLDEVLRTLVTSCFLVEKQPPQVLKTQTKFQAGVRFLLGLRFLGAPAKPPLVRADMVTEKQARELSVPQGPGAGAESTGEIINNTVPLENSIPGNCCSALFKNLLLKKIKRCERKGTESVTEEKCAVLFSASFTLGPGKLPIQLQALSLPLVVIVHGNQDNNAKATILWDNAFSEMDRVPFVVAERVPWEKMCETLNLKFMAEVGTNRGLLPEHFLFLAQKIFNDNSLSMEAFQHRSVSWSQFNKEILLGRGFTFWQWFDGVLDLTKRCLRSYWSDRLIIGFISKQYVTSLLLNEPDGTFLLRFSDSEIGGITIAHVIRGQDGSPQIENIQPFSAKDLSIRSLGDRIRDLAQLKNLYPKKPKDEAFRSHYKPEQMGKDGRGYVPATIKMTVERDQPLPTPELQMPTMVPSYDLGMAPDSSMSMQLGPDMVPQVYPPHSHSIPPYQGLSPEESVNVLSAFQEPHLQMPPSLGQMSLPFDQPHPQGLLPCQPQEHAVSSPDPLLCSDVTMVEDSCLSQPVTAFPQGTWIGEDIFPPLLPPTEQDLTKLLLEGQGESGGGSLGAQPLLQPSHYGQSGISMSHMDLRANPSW
Kind of assay: Fluorescence polarization (FP) binding assay, STAT6. The note with it: FP competition, 5 nM fluorescein-labeled tracer, 200 nM protein, PBS pH7.4; read-out: Binding STAT6. As to the method: Evaluation of the activity of the inhibitors may be accomplished by fluorescence polarization (FP) experiments. A representative general protocol is the following:
Fluorescence polarization (FP) experiments are performed in black round-bottom plates using the CLARIOstar microplate reader. To each well, fluorescein-labeled tracer and STAT5 or STAT6 protein are added in assay buffer. […] The inhibition constants are determined as the concentration of the STAT5 or STAT6 at which 50% of the ligand is bound.
Fluorescence polarization (FP) experiments were performed in 96-well, black round-bottom plates (Microfluor 2, Fisher Scientific) using the CLARIOstar microplate reader (BMG Labtech). To each well, 5 nM of fluoresceinlabeled tracer and 200 nM of STAT5 and/or STAT6 protein were added to a final volume of 100 μl in the assay buffer (PBS pH7.4+0.01% BGG+0.01% Tween-20, 2 mM DTT). The plate was mixed on a shaker for 15 m and incubated at room temperature for 1 h to reach equilibrium. […] All experimental data were analyzed using Prism 8.0 software (GraphPad Software), and the inhibition constants were determined by nonlinear curve fitting as the concentration of the STAT5 and/or STAT6 at which 50% of the ligand is bound.
(In general: Fluorescence polarisation rises when a labelled molecule tumbles more slowly, as on binding a larger partner.)
Take `CCOC(=O)CO[C@H]1C[C@@H](C(=O)N(CCC(=O)O)c2ccc(Br)cc2)N(C(=O)[C@@H](NC(=O)c2cc3cc(C(F)(F)P(=O)(O)O)ccc3s2)C(C)(C)C)C1` [Compound 47, 3-((2S,4S)-N-(4-bromophenyl)-1-((S)-2-(5-(difluoro(phosphono)methyl)benzo [b]thiophene-2-carboxamido)-3,3-dimethylbutanoyl)-4-(2-ethoxy-2-oxoethoxy)pyrrolidine-2-carboxamido)propanoic acid]: the Ki is 100 to 1000 nM.

With `CCOC(=O)CO[C@@H]1C[C@@H](C(=O)N(CCC(=O)O)c2ccc(Br)cc2)N(C(=O)[C@@H](NC(=O)c2cc3cc(C(F)(F)P(=O)(O)O)ccc3s2)C(C)(C)C)C1` [Compound 48, 3-((2S,4R)-N-(4-bromophenyl)-1-((S)-2-(5-(difluoro(phosphono)methyl)benzo[b]thiophene-2-carboxamido)-3,3-dimethylbutanoyl)-4-(2-ethoxy-2-oxoethoxy)pyrrolidine-2-carboxamido)propanoic acid], the Ki was 100 to 1000 nM.

As for `CC(C)(C)[C@H](NC(=O)c1cc2cc(C(F)(F)P(=O)(O)O)ccc2s1)C(=O)N1C[C@@H](OCC(=O)O)C[C@H]1C(=O)N(CCC(=O)O)c1ccc(Br)cc1` [Compound 49, 3-((2S,4S)-N-(4-bromophenyl)-4-(carboxymethoxy)-1-((S)-2-(5-(difluoro(phosphono)methyl)benzo[b]thiophene-2-carboxamido)-3,3-dimethylbutanoyl)pyrrolidine-2-carboxamido)propanoic acid], the Ki was 100 to 1000 nM.

As to `CC(C)(C)[C@H](NC(=O)c1cc2cc(C(F)(F)P(=O)(O)O)ccc2s1)C(=O)N1C[C@H](OCC(=O)O)C[C@H]1C(=O)N(CCC(=O)O)c1ccc(Br)cc1` [Compound 50, 3-((2S,4R)-N-(4-bromophenyl)-4-(carboxymethoxy)-1-((S)-2-(5-(difluoro(phosphono)methyl)benzo[b]thiophene-2-carboxamido)-3,3-dimethylbutanoyl)pyrrolidine-2-carboxamido)propanoic acid], the Ki lay within 100 to 1000 nM.

In the case of `CNC(=O)CCN(C(=O)[C@@H]1C[C@H](OCC(=O)NC)CN1C(=O)[C@@H](NC(=O)c1cc2cc(C(F)(F)P(=O)(O)O)ccc2s1)C(C)(C)C)c1ccc(Br)cc1` [Compound 51, ((2-(((S)-1-((2S,4S)-2-((4-bromophenyl)(3-(methylamino)-3-oxopropyl)carbamoyl)-4-(2-(methylamino)-2-oxoethoxy)pyrrolidin-1-yl)-3,3-dimethyl-1-oxobutan-2-yl)carbamoyl)benzo[b]thiophen-5-yl)difluoromethyl)phosphonic acid], the Ki was 100 to 1000 nM.

In the case of `CNC(=O)CCN(C(=O)[C@@H]1C[C@@H](OCC(=O)NC)CN1C(=O)[C@@H](NC(=O)c1cc2cc(C(F)(F)P(=O)(O)O)ccc2s1)C(C)(C)C)c1ccc(Br)cc1` [Compound 52, ((2-(((S)-1-((2S,4R)-2-((4-bromophenyl)(3-(methylamino)-3-oxopropyl)carbamoyl)-4-(2-(methylamino)-2-oxoethoxy)pyrrolidin-1-yl)-3,3-dimethyl-1-oxobutan-2-yl)carbamoyl)benzo[b]thiophen-5-yl)difluoromethyl)phosphonic acid], the Ki is 100 to 1000 nM.

Turning to `CCOC(=O)CO[C@H]1C[C@@H](C(=O)Nc2ccc(I)cc2)N(C(=O)[C@@H](NC(=O)c2cc3cc(C(F)(F)P(=O)(O)O)ccc3s2)C(C)(C)C)C1` [Compound 53, ((2-(((S)-1-((2S,4S)-4-(2-ethoxy-2-oxoethoxy)-2-((4-iodophenyl)carbamoyl)pyrrolidin-1-yl)-3,3-dimethyl-1-oxobutan-2-yl)carbamoyl)benzo[b]thiophen-5-yl)difluoromethyl)phosphonic acid], the Ki is 1000 to 10000 nM.

Consider `CCOC(=O)CO[C@H]1C[C@@H](C(=O)N(C)c2ccc(Br)cc2)N(C(=O)[C@@H](NC(=O)c2cc3cc(C(F)(F)P(=O)(O)O)ccc3s2)C(C)(C)C)C1` [Compound 54, ((2-(((S)-1-((2S,4S)-2-((4-bromophenyl)(methyl)carbamoyl)-4-(2-ethoxy-2-oxoethoxy)pyrrolidin-1-yl)-3,3-dimethyl-1-oxobutan-2-yl)carbamoyl)benzo[b]thiophen-5-yl)difluoromethyl)phosphonic acid], for which the Ki was in the range of 100 to 1000 nM.

With `CCCN(C(=O)[C@@H]1C[C@H](OCC(=O)OCC)CN1C(=O)[C@@H](NC(=O)c1cc2cc(C(F)(F)P(=O)(O)O)ccc2s1)C(C)(C)C)c1ccc(Br)cc1` [Compound 55, ((2-(((S)-1-((2S,4S)-2-((4-bromophenyl)(propyl)carbamoyl)-4-(2-ethoxy-2-oxoethoxy)pyrrolidin-1-yl)-3,3-dimethyl-1-oxobutan-2-yl)carbamoyl)benzo[b]thiophen-5-yl)difluoromethyl)phosphonic acid], the Ki lay within 100 to 1000 nM.

In the case of `CCOC(=O)CO[C@H]1C[C@@H](C(=O)N(CCC(=O)NC)c2ccc(Br)cc2)N(C(=O)[C@@H](NC(=O)c2cc3cc(C(F)(F)P(=O)(O)O)ccc3s2)C(C)(C)C)C1` [Compound 56, ((2-(((S)-1-((2S,4S)-2-((4-bromophenyl)(3-(methylamino)-3-oxopropyl)carbamoyl)-4-(2-ethoxy-2-oxoethoxy)pyrrolidin-1-yl)-3,3-dimethyl-1-oxobutan-2-yl)carbamoyl)benzo[b]thiophen-5-yl)difluoromethyl)phosphonic acid], the Ki is 100 to 1000 nM.

With `CCOC(=O)CO[C@H]1C[C@@H](C(=O)N(CCC(=O)N(C)C)c2ccc(Br)cc2)N(C(=O)[C@@H](NC(=O)c2cc3cc(C(F)(F)P(=O)(O)O)ccc3s2)C(C)(C)C)C1` [Compound 57, ((2-(((S)-1-((2S,4S)-2-((4-bromophenyl)(3-(dimethylamino)-3-oxopropyl)carbamoyl)-4-(2-ethoxy-2-oxoethoxy)pyrrolidin-1-yl)-3,3-dimethyl-1-oxobutan-2-yl)carbamoyl)benzo[b]thiophen-5-yl)difluoromethyl)phosphonic acid], the Ki was 100 to 1000 nM.

Regarding `CC(C)(C)[C@H](NC(=O)c1cc2cc(C(F)(F)P(=O)(O)O)ccc2s1)C(=O)N1Cc2ccccc2C[C@H]1C(=O)N1CCOC(c2cccnc2)C1` (stereo partly drawn) [Compound 217, ((2-(((2S)-3,3-dimethyl-1-oxo-1-((3S)-3-(2-(pyridin-3-yl)morpholine-4-carbonyl)-3,4-dihydroisoquinolin-2(1H)-yl)butan-2-yl)carbamoyl)benzo[b]thiophen-5-yl)difluoromethyl)phosphonic acid], the Ki is below 100 nM.

With `CC(C)(C)[C@H](NC(=O)c1cc2cc(C(F)(F)P(=O)(O)O)ccc2s1)C(=O)N1Cc2ccccc2C[C@H]1C(=O)N1CCOC(c2ccncc2)C1` (stereo partly drawn) [Compound 218, ((2-(((2S)-3,3-dimethyl-1-oxo-1-((3S)-3-(2-(pyridin-4-yl)morpholine-4-carbonyl)-3,4-dihydroisoquinolin-2(1H)-yl)butan-2-yl)carbamoyl)benzo[b]thiophen-5-yl)difluoromethyl)phosphonic acid], the Ki lay in the range of 100 to 1000 nM.

Turning to `CC(C)(C)[C@H](NC(=O)c1cc2cc(C(F)(F)P(=O)(O)O)ccc2s1)C(=O)N1Cc2ccccc2C[C@H]1C(=O)N1CCOC(c2nccs2)C1` (stereo partly drawn) [Compound 219, ((2-(((2S)-3,3-dimethyl-1-oxo-1-((3S)-3-(2-(thiazol-2-yl)morpholine-4-carbonyl)-3,4-dihydroisoquinolin-2(1H)-yl)butan-2-yl)carbamoyl)benzo[b]thiophen-5-yl)difluoromethyl)phosphonic acid], the Ki is below 100 nM.

Regarding `CC(C)(C)[C@H](NC(=O)c1cc2cc(C(F)(F)P(=O)(O)O)ccc2s1)C(=O)N1Cc2ccccc2C[C@H]1C(=O)N1CCCOC(c2ccccc2)C1` (stereo partly drawn) [Compound 220, ((2-(((2S)-3,3-dimethyl-1-oxo-1-((3S)-3-(2-phenyl-1,4-oxazepane-4-carbonyl)-3,4-dihydroisoquinolin-2(1H)-yl)butan-2-yl)carbamoyl)benzo[b]thiophen-5-yl)difluoromethyl)phosphonic acid], the Ki lay within 100 to 1000 nM.
